Experimental data as given in US20190336608A1, “CATIONIC CARRIERS FOR NUCLEIC ACID DELIVERY” (priority 2016, published 2019).

Experiments:
[1] = test system: HepG2 cells; assay: Transfection efficiency of HepG2 cells in vitro (GpLuc mRNA, luminescence of supernatant); assay type: cell-based, human; conditions: for effect on transfection efficiency (in words): added to polymer PB83, 24 h post transfection, compared to polymer alone
Protocol: This example describes the evaluation of the effect of different polymer-lipid(oid) formulations (as described under Example ▪1) on transfection efficiency on HepG2 cells (human liver carcinoma cell line). As a read-out for transfection efficiency, GpLuc mRNA (SEQ ID NO: 14) was used as a cargo. Successful transfection with the cargo leads to the translation of the luciferase protein and to a secretion of Gp luciferase protein into the cell culture supernatant.
A volume of 0.2 mL HepG2 cells (10.000 cells) were seeded in a 96 well tissue culture plate. After removing the medium from each well, 100 μL RPMI 1640 medium (with 1% Penicillin and 1% Streptomycin, 1% L-Glutamin) was added to each well. Afterwards, HepG2 cells were transfected with 100 μL transfection mix (in triplicates) of the above described polymer-lipid(oid) mRNA complexes and respective controls (in triplicates), and cells were incubated at 37° C. and 5% CO2 for 90 minutes. After incubation, 150 μL medium was exchanged with 150 μL fresh RPMI 1640 medium supplemented with 10% fetal calf serum. Twenty-four hours post transfection, 10 μL of supernatant of each well was extracted and used for further luminescence analysis (see below).
A volume of 10 μL supernatant was transferred to a 96 well plate for GpLuc measurement. Then, coelenterazine working solution (100 μM) was prepared (1 mL coelenterazine stock solution (4.72 mM in EtOH) in 49 mL phosphate buffered saline supplemented with 5 mM NaCl, pH 7.2). A volume of 100 μL coelenterazine working solution was used as a substrate for GpLuc and measured after 5 seconds in a commercially available microplate reader.

[2] = test system: Sol8 muscle cells; assay: Transfection efficiency of differentiated Sol8 muscle cells in vitro (GpLuc mRNA); assay type: cell-based, mouse; conditions: added to polymer PB83, low- and high-charge ratio complexes, 24 h post transfection
From the text: The purpose of this example is to assess the effect of lipid additives such as permanently cationic lipids or lipidoids on transfection/expression efficiency in Sol8 cells. […] Sol8 is a myogenic cell line isolated by Daubas et al. from primary cultures of soleus muscle taken from the leg of a normal C3H mouse. As a read-out for transfection efficiency, GpLuc mRNA (SEQ ID NO: 14) was used as the cargo. A successful transfection with the cargo leads to the translation of the luciferase protein and to a secretion of Gp luciferase protein into the cell culture supernatant. For further details on the GpLuc mRNA cargo see Example 1.
For a subset on hydrogel, a volume of 0.2 mL Sol8 cells (20.000 cells) were seeded in 96 well glass bottom plates (Softwell Hydrogel coated with collagen (elasticity E=12 kPa)) on day 1. For another subset without hydrogel, a volume of 0.2 mL with 10.000 Sol8 cells per well were seeded in a 96 well glass bottom plates.
After removing the medium from each well, 100 μL DMEM medium (with 2% horse serum) was added to each well. Afterwards, on day 2, Sol8 cells were transfected with 100 μL transfection mix of polymer-lipid(oid) complexes (in triplicates without serum) and respective controls (also in triplicates), and cells were incubated at 37° C. and 5% CO2 for 120 minutes (non-hydrogel subset) or respectively 90 minutes (hydrogel subset). After incubation, 150 μL medium was exchanged with 150 μL fresh DMEM medium supplemented with 10% fetal calf serum.
Twenty-four hours post transfection, i.e. on day 3, 10 μL of supernatant of each well was extracted and used for quantification of protein expression (measurement of GpLuc) via luminescence analysis as described above.

[3] = test system: hemagglutinin (HA) protein of influenza A virus (A/Netherlands/602/2009 (H1N1)); assay: Hemagglutination inhibition assay after intramuscular vaccination with HA-mRNA and 3-C12-OH (second Example 7); assay type: in vivo; conditions: Balb/c mice, 10 μg HA-mRNA R2564 with 3-C12-OH, i.m.; after prime and boost vaccination
[4] = test system: hemagglutinin (HA) protein of influenza A virus (A/Netherlands/602/2009 (H1N1)); assay: ELISA of influenza specific IgG1 and IgG2a antibodies in sera of vaccinated mice; assay type: in vivo; conditions: Balb/c mice, 10 μg HA-mRNA with 3-C12-OH i.m.; 21 days after prime and 14 days after boost
[5] = test system: hemagglutinin (HA) protein of influenza A virus (A/Netherlands/602/2009 (H1N1)); assay type: in vivo; conditions: Balb/c mice, 10 μg HA-mRNA with 3-C12-OH i.m.; splenocytes 14 days after boost

SMILES	effect on transfection efficiency (in words) [1]	effect on transfection efficiency / expression level (in words) [2]	antibody titers against the HA protein compared to HA-mRNA (R2564) alone [3]	functional antibody titers, IgG1 subtype, compared to mRNA without lipid [4]	functional antibody titers, IgG2a subtype, compared to mRNA without lipid [4]	IFNy production compared to non-lipid-formulated mRNA [5]	increase in transfection efficiency compared to transfections with polymer alone ([1]; combination with polymer PB83, high-charge complexes N/P 2, N/P 4, N/P 6, 24 h post transfection)
CCCCCCCCCCC(O)C[N+](C)(C)CCN(CC[N+](C)(C)CC(O)CCCCCCCCCC)CC[N+](C)(C)CC(O)CCCCCCCCCC (centres unmarked) [3-C12-OH-cat]	profound increase	–	–	–	–	–	–
CCCCCCCCCCCCNCCN(CCNCCCCCCCCCCCC)CCNCCCCCCCCCCCC [3-C12]	profound increase	profound increase	–	–	–	–	–
CCCCCCCCCCC(O)CNCCN(CCNCC(O)CCCCCCCCCC)CCNCC(O)CCCCCCCCCC (centres unmarked) [3-C12-OH]	profound increase	profound increase	significantly higher	significantly higher	significantly higher	significant increased	–
CCCCCCCC/C=C\CCCCCCCC(=O)OCC(C[N+](C)(C)C)OC(=O)CCCCCCC/C=C\CCCCCCCC (centres unmarked) [DOTAP, 1,2-dioleoyl-3-trimethylammonium-propane, reference compound]	–	effective	–	–	–	–	up to 3 log units
